US8354414B2, “Substituted bicyclic pyrimidines” (Cephalon, Inc, priority 2006, dated 2013)

Tests used:
His6-GSK-3β = target: T1, His6-GSK-3β (Homo sapiens, UniProt P49841); experiment: Inhibition of His6-GSK-3β kinase activity (ELISA-based format, time-resolved fluorescence readout); format: biochemical; conditions: class symbols; read-out: GSK3β IC50
T1 construct: made in house; host or cells: Sf21 insect cells (baculovirus)
In short: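 N-terminal His6-tagged full-length human GSK-3β (aa 2-419) expressed in Sf21 cells, 200 ng/ml, phosphorylating plate-coated GST-Rb with 20 μM ATP in pH 7.2 HEPES buffer, 30 min at 37° C. Phospho-Rb (Ser-780) detected by antibody plus Eu-labelled secondary, time-resolved fluorescence; IC50 from curves.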

CDK5/GST-p25 = target: T2, CDK5/GST-p25 (Homo sapiens, UniProt Q00535); experiment: Inhibition of CDK5/GST-p25 kinase activity (ELISA with time-resolved fluorescence readout); format: biochemical
T2 construct: The final construct, encoding for full-length human CDK5; made in house; host or cells: Sf21 insect cells (baculovirus co-infection)
T2 sequence (Q00535 whole entry): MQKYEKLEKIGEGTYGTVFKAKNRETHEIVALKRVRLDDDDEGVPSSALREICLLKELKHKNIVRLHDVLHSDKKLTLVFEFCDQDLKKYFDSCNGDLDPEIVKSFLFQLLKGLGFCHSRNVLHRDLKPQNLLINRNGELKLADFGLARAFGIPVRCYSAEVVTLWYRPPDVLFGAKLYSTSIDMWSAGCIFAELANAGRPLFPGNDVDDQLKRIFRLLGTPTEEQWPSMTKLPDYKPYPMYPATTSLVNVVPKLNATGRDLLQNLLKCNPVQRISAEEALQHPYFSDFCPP
T2 sequence (Q15078 108-307 partner limits assumed): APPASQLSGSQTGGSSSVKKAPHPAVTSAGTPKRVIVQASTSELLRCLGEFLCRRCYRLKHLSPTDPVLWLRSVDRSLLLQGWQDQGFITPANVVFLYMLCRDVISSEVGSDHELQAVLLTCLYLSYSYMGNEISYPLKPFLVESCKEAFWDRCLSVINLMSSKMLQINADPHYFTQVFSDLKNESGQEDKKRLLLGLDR
In short: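 Sf21-coexpressed full-length human CDK5 with GST-p25 (p35 aa 108-307), glutathione-purified, at 2 ng/ml was reacted for 20 min at 37 °C on plate-coated GST-Rb(773-928). Buffer was 20 mM HEPES pH 7.2, 10 µM ATP, 10 mM MgCl2 and 2.5% DMSO. Phospho-Rb Ser-780 was detected by Eu-labelled antibody TRF, and IC50 curves were fitted.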

T1 sequence (P49841 2-419): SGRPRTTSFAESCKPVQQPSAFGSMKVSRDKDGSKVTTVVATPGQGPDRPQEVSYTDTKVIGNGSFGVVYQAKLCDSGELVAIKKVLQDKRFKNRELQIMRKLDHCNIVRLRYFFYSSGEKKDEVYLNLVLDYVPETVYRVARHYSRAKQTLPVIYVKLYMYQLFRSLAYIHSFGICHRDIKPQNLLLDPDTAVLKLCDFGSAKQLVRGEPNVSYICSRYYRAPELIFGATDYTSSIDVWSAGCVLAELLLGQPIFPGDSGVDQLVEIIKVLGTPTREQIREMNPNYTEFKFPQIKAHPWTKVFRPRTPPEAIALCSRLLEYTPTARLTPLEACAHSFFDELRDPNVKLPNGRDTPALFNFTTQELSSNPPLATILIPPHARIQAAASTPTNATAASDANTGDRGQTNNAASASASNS

SMILES: CN(C)CCNc1nc(C2C(=O)Nc3ccc(Cl)cc32)c2cn(C3CCCC3)nc2n1 (stereo not drawn) [Example 376, 5-Chloro-3-[2-cyclopentyl-6-(2-dimethylamino-ethylamino)-2H-pyrazolo [3,4-d]pyrimidin-4-yl]-1,3-dihydro-indol-2-one]
- IC50 (His6-GSK-3β): 0.3 to 3 µM
- IC50 (CDK5/GST-p25; class symbols): > 10 µM
- melting point: 145 to 148 °C

SMILES: CN(C)CCCNc1nc(C2C(=O)Nc3ccc(Cl)cc32)c2cn(C3CCCC3)nc2n1 (stereo not drawn) [Example 377, 5-Chloro-3-[2-cyclopentyl-6-(3-dimethylamino-propylamino)-2H-pyrazolo [3,4-d]pyrimidin-4-yl]-1,3-dihydro-indol-2-one]
- IC50 (His6-GSK-3β): 0.3 to 3 µM
- IC50 (CDK5/GST-p25; class symbols): > 10 µM
- melting point: 176 to 179 °C

SMILES: CNCCNc1nc(C2C(=O)Nc3ccc(Br)cc32)c2cn(C3CCCC3)nc2n1.Cl (stereo not drawn) [Example 378, 5-Bromo-3-[2-cyclopentyl-6-(2-methylamino-ethylamino)-2H-pyrazolo [3,4-d]pyrimidin-4-yl]-1,3-dihydro-indol-2-one hydrochloride salt]
- IC50 (His6-GSK-3β): 0.3 to 3 µM
- IC50 (CDK5/GST-p25; numeric bounds): > 3 µM
- melting point: 201 to 204 °C

SMILES: CNCCCNc1nc(C2C(=O)Nc3ccc(Br)cc32)c2cn(C3CCCC3)nc2n1.Cl (stereo not drawn) [Example 379, 5-Bromo-3-[2-cyclopentyl-6-(3-methylamino-propylamino)-2H-pyrazolo[3,4-d]pyrimidin-4-yl]-1,3-dihydro-indol-2-one hydrochloride salt]
- IC50 (His6-GSK-3β): < 0.3 µM
- IC50 (CDK5/GST-p25; numeric bounds): > 3 µM
- melting point: 208 to 211 °C

SMILES: CC(C)n1cc2c(C3C(=O)Nc4ccc(Cl)cc43)ncnc2n1 (stereo not drawn) [Example 381, 5-Chloro-3-(2-isopropyl-2H-pyrazolo[3,4-d]pyrimidin-4-yl)-1,3-dihydro-indol-2-one]
- IC50 (His6-GSK-3β): 0.3 to 3 µM
- IC50 (CDK5/GST-p25; class symbols): < 0.3 µM
- melting point: > 300 °C

SMILES: CC(C)n1cc2c(C3C(=O)Nc4ccc(C#N)cc43)ncnc2n1 (stereo not drawn) [Example 382, 3-(2-Isopropyl-2H-pyrazolo[3,4-d]pyrimidin-4-yl)-2-oxo-2,3-dihydro-1H-indole-5-carbonitrile]
- IC50 (His6-GSK-3β): 0.3 to 3 µM
- IC50 (CDK5/GST-p25; class symbols): < 0.3 µM
- melting point: > 300 °C
